Test [1] has as its system BRCA2 Knockout DLD-1 cells. In words: In vitro proliferation inhibition (CellTiter-Glo), BRCA2 Knockout DLD-1. The conditions noted are these: Homo sapiens; DLD-1, colorectal cancer, BRCA2 deletion; 6-10 days culture. It counts as cell-based. The text has this:
[…]
(§1) Experimental data processing method: The luminescence signal value was used to calculate the inhibition rate. […]

In test [2] the test system is human colorectal cancer cell line DLD-1 BRCA2−/− xenograft tumor. Kind of test: Subcutaneous xenograft tumor model of human colorectal cancer cell line DLD-1 BRCA2−/−. Particulars: DLD-1 BRCA2 deletion. It counts as in vivo, BALB/c nude mice. From the text:
• 1. Experimental objective: To evaluate the in vivo efficacy of compound 1 in a subcutaneous xenograft tumor model of human colorectal cancer cell line DLD-1 BRCA2^−/− in nude mice. • 2. Reagent • RPMI-1640 medium (22400-089, Gibco), fetal bovine serum (FBS) (10099-141C, Gibco) • Phosphate buffer (PBS, 10010-023, Gibco), HPMC (D180HB4005, Shanghai Colorcon Coating Technology Ltd.) • 0.25% Trypsin-EDTA (25200-056, Gibco), Pen Strep (P/S) (15140-122, Gibco) • 3. Experimental operations and data processing • 3.1 Animals: BALB/c nude mice, 6-8 weeks old, female, purchased from the Laboratory Animal Business Department of Shanghai Institute of Planned Parenthood Research. • 3.2 Cell culture and cell suspension preparation • a. A vial of DLD-1 BRCA2^−/− cells was taken from a cell bank, the cells were thawed with RPMI-1640 medium (RPMI-1640+10% FBS), and the thawed cells were placed in a cell culture flask (with the cell type, date, the name of the culture operator, etc., being marked on the wall of the flask), which were placed in a CO2 incubator for culturing (wherein the temperature of the incubator was 37° C., and the CO2 concentration was 5%). • b. The cells were passaged every three days, and after passage, the cells were placed in the CO2 incubator to continue the culture. This process was repeated until the cell number met the requirements for in vivo efficacy. • c. The cultured cells were collected, counted using a full-automatic cell counter, and resuspended with PBS on the basis of the counting results to prepare a cell suspension (at a density of 5×10^7/mL), which was then placed in an ice box for later use. • 3.3 Cell inoculation • a. Before inoculation, the nude mice were marked with disposable universal ear tags for mice and rats. • b. At the time of inoculation, the cell suspension was mixed uniformly, 0.1-1 mL of the cell suspension was aspirated using a 1 mL syringe with air bubbles expelled, and the syringe was then placed on an ice bag for later use. • c. The nude mouse was secured with the left hand, the right dorsal area near the right shoulder (inoculation site) of the nude mouse was disinfected with a 75% alcohol cotton ball, and inoculation was initiated after 30 seconds. • d. The experimental nude mice were inoculated sequentially (0.1 mL of cell suspension per mouse). • 3.4 Tumor measurement, grouping and administration in tumor-bearing mice • a. Tumor was measured on days 10-18 after inoculation depending on the tumor growth, and the tumor size was calculated.
tumor volume (mm^3)=length (mm)×width (mm)×width (mm)/2 Tumor volume calculation: • b. According to the body weight of tumor-bearing mice and the size of the tumor, the mice were grouped by random grouping. • c. According to the grouping results, the test drug was started to be administered (administration method: oral administration; administration volume: 10 mL/kg; administration frequency: once/day; administration cycle: 28 days; vehicle: 0.5% HPMC). • d. Tumor measurement and weighing were performed twice a week after starting administration of test drugs. • e. The animals were euthanized at the end of the experiment. • f. Data processing was performed using software such as GraphPad Prism. The tumor inhibitory efficacy of the compound was evaluated by TGI (%) and ΔT/ΔC (%). ΔT/ΔC (%)=(T−T0)/(C−C0)×100, where T and C are the tumor volumes of the treatment group and the vehicle control group at the end of the experiment, respectively, and T0 and C0 are the tumor volumes of the treatment group and the vehicle control group at the beginning of the experiment, respectively. Tumor growth inhibition (TGI) (%)=100−ΔT/ΔC (%). Tumor growth inhibition (TGI) (%)=100−(T−T0)/T0×100 when tumor regression occurs • 4. Experimental results and conclusions
Background: A xenograft is tissue or cells of one species grown in another, often human tumour cells in immunodeficient mice.

For the next test, the system named is PSN-1 cells. In words: In vitro proliferation inhibition (CellTiter-Glo), PSN-1. In kind it is cell-based. Particulars: Homo sapiens, PSN1; PSN-1, pancreatic cancer, HRD-positive (low expression of MRE11A/CHEK2 protein); 6-10 days culture.
From the text: […]
as §1
For orientation: In ATP-based viability assays light output follows the ATP content of the culture.

A further test deals with OVCAR-3 cells. In words: In vitro proliferation inhibition (CellTiter-Glo), OVCAR-3. It counts as cell-based. The conditions noted are these: Homo sapiens; OVCAR-3, ovarian cancer; 6-10 days culture.
From the text: […]
as §1

Another test deals with CAOV-3 cells. In words: In vitro proliferation inhibition (CellTiter-Glo), CAOV-3. Particulars: Homo sapiens; CAOV-3, ovarian cancer, HRD-positive (low expression of ATM protein); 6-10 days culture. In kind it is cell-based.
From the text: […]
as §1

The mark [3] stands for this setting: 0.3 mg/kg oral once/day, Day 28.
Setting [4] is: 100 mg/kg oral once/day, Day 28.

The IC50 is the concentration at which inhibition is half-maximal. Usually T/C stands for the ratio of treated to control. On to `CCc1cc2ncc(CN3CCN(c4ccc(C(=O)NC)nc4)CC3)cc2[nH]c1=O` [AZD5305], for which the IC50 in test [1] was found to be 0.0026 ± 0.0006 µM; with PSN-1 cells, 0.0021 ± 0.0005 µM; in the test with OVCAR-3 cells, 0.0051 ± 0.0014 µM; with CAOV-3 cells, 0.004 ± 0.0008 µM. Further, the “Tumor volume (Mean ± SEM)” value is reported as 154 ± 12 mm^3 in test [2] (0.3 mg/kg oral once/day, Day 0) and 92 ± 22 mm^3 in test [2] (setting [3]). The T/C in test [2] (setting [3]) amounted to 6.20%. The TGI in test [2] (setting [3]) is 140.20%.
In the case of `O=C(c1cc(Cc2n[nH]c(=O)c3ccccc23)ccc1F)N1CCN(C(=O)C2CC2)CC1` [Olaparib], the IC50 came to 0.16 ± 0.066 µM in test [1], 0.065 ± 0.019 µM in the test on PSN-1 cells, 0.319 ± 0.047 µM with OVCAR-3 cells and 0.151 ± 0.018 µM in the test on CAOV-3 cells. Also, the “Tumor volume (Mean ± SEM)” value came out at 154 ± 13 mm^3 in test [2] (100 mg/kg oral once/day, Day 0) and 942 ± 112 mm^3 in test [2] (setting [4]). In test [2] (setting [4]), this compound showed a T/C of 63.43%. For the same compound, the TGI in test [2] (setting [4]) is 40.81%.

Values taken from patent US20260256756A1, “USE OF PIPERIDINE ALKENE COMPOUND IN PREPARATION OF DRUG FOR TREATING CANCER” (JIANGSU HANSOH PHARMACEUTICAL GROUP CO., LTD., priority 2023, published 2026).
